How the values were obtained:
[1] = tested on: primary human total T-cells; test: T-cell activation, CD25 surface staining, Biological Example 9; format: cell-based; details: anti-CD3 and anti-CD28 co-stimulation, 48 hours, fold change over baseline, Table 5
[2] = tested on: primary human total T-cells; test: T-cell activation, IL-2 secretion, Biological Example 2; format: cell-based; details: 48 hours, fold change over baseline; for fold induction at 0.3 µM: 0.3 μM inhibitor; for fold induction at 1 µM: 1 μM inhibitor; for fold induction at 3 µM: 3 μM inhibitor
[3] = tested on: primary human total T-cells; test: T-cell activation, CD25 surface staining, Biological Example 2; format: cell-based; details: 48 hours, fold change over baseline; for fold induction at 0.3 µM: 0.3 μM inhibitor; for fold induction at 1 µM: 1 μM inhibitor; for fold induction at 3 µM: 3 μM inhibitor
[4] = tested on: primary human total T-cells; test: T-cell activation, IL-2 secretion, Biological Example 9; format: cell-based; details: 48 hours, fold change over baseline, Table 5; for IL-2 secretion CD3/CD28 0.3 μM / IL-2 secretion CD3/CD28 1 μM: anti-CD3 and anti-CD28 co-stimulation; for IL-2 secretion CD3/CD28 0.3 μM: 0.3 μM inhibitor; for IL-2 secretion CD3/CD28 1 μM / IL-2 secretion CD3 1 μM: 1 μM inhibitor; for IL-2 secretion CD3 1 μM / IL-2 secretion CD3 3 μM: anti-CD3 stimulation alone; for IL-2 secretion CD3 3 μM: 3 μM inhibitor
[5] = biological target: T1, Cbl-b (Homo sapiens (Human), UniProt Q13191); test: Cbl-b displacement assay (Cbl-b inhibition assay), Biological Example 1; format: binding
Procedure, shortened: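 Avitag-biotinylated human Cbl-b (residues 36–427) at 0.5 nM ("High") or 0.125 nM ("Low") pre-incubated 1 h with compound (1% DMSO) in HEPES pH 7.5/NaCl/Triton/BSA/TCEP, RT. Then 1 h with 150 nM BODIPY FL inhibitor probe (~EC40) plus 2 nM streptavidin-Tb. TR-FRET read at 520/620 nm for probe displacement.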

[6] = tested on: primary human total T-cells; test: T-cell activation, IL-2 secretion, Biological Example 13; format: cell-based; details: 48 hours, fold change over baseline, Table 8; for IL-2 secretion CD3/CD28 0.3 μM / IL-2 secretion CD3/CD28 1 μM: anti-CD3 and anti-CD28 co-stimulation; for IL-2 secretion CD3/CD28 0.3 μM: 0.3 μM inhibitor; for IL-2 secretion CD3/CD28 1 μM / IL-2 secretion CD3 1 μM: 1 μM inhibitor; for IL-2 secretion CD3 1 μM / IL-2 secretion CD3 3 μM: anti-CD3 stimulation alone; for IL-2 secretion CD3 3 μM: 3 μM inhibitor
[7] = biological target: T1, Cbl-b; test: Cbl-b displacement assay (Cbl-b inhibition assay), Biological Example 8; format: binding; details: Table 4
Method: (§1) Candidate compounds were evaluated for their ability to bind and inhibit Cbl-b, an E3 ubiquitin-protein ligase, as evidenced by their ability to displace a fluorophore-labeled probe bound to Cbl-b.
(§2) The ability of candidate compounds to displace a known inhibitor and thereby inhibit Cbl-b activity was measured by monitoring the interaction of Cbl-b with a fluorophore-labeled probe in the presence of the candidate compound. A truncated variant of Cbl-b (UniProt number Q13191) containing residues 36-427 and an Avitag at its N-terminus was co-expressed with BirA biotin ligase and purified using a standard protocol (see Dou et al., Nature Structural and Molecular Biology 8: 982-987, 2013; Avidity LLC).
Fluorescently-labeled inhibitor probe was synthesized and tagged with BODIPY FL. Cbl-b displacement assays were performed in a 384-well plate at room temperature in a […] by pre-incubating 0.5 nM Cbl-b or 0.125 nM Cbl-b (final concentration, indicated as “High” and “Low,” respectively) in an assay buffer containing 20 mM HEPES pH 7.5, 150 mM NaCl, 0.01% Triton X-100, 0.01% BSA, and 0.5 mM TCEP in the presence of a candidate compound in 1% DMSO (final concentration) for 1 hour. After incubation in the presence of the candidate compound, the plate was incubated for an additional one hour in the presence of an approximate EC40 binding saturation consisting of 150 nM fluorescently-labeled inhibitor probe and 2 nM Streptavidin-Terbium (Cisbio) (final concentrations). Following the one hour incubation, the plates were read for TR-FRET signal at […] using an Envision plate reader (Perkin Elmer).
(§3) The resulting data for the Cbl-b activity assays were analyzed using standard methods to determine the IC50 values for the tested compounds.

[8] = tested on: primary human total T-cells; test: T-cell activation, CD25 surface staining, Biological Example 13; format: cell-based; details: anti-CD3 and anti-CD28 co-stimulation, 48 hours, fold change over baseline, Table 8
[9] = biological target: T1, Cbl-b; test: Cbl-b displacement assay (Cbl-b inhibition assay), Biological Example 12; format: binding; details: Table 7
Method: as §1, §2
Fluorescently-labeled inhibitor probe was synthesized and tagged with BODIPY FL. Cbl-b displacement assays were performed in a 384-well plate at room temperature in a […] by pre-incubating 0.5 nM Cbl-b or 0.125 nM Cbl-b (final concentration, indicated as “High” and “Low,” respectively) in an assay buffer containing 20 mM HEPES pH 7.5, 150 mM NaCl, 0.01% Triton X-100, 0.01% BSA and 0.5 mM TCEP in the presence of a candidate compound in 1% DMSO (final concentration) for one hour. After incubation in the presence of the candidate compound, the plate was incubated for an additional one hour in the presence of an approximate EC40 binding saturation consisting of 150 nM fluorescently-labeled inhibitor probe and 2 nM Streptavidin-Terbium (Cisbio) (final concentrations). Following the one hour incubation, the plates were read for TR-FRET signal at […] using an Envision plate reader (Perkin Elmer).
as §3

[10] = anti-CD3 and anti-CD28 co-stimulation
[11] = anti-CD3 and anti-CD28 co-stimulation, read-out: IL-2 secretion CD3/CD28 1 μM
[12] = anti-CD3 stimulation alone, read-out: IL-2 secretion CD3 1 μM
[13] = anti-CD3 and anti-CD28 co-stimulation, read-out: CD25 staining CD3/CD28 1 μM
[14] = anti-CD3 stimulation alone, read-out: CD25 staining CD3 1 μM
[15] = 0.5 nM Cbl-b final concentration (High), read-out: Cbl-b IC50 (High)
[16] = 0.125 nM Cbl-b final concentration (Low), read-out: Cbl-b activity IC50 (Low)
[17] = 0.125 nM Cbl-b final concentration (Low), read-out: Cbl-b IC50 (Low)

T1 sequence (Q13191 36-427): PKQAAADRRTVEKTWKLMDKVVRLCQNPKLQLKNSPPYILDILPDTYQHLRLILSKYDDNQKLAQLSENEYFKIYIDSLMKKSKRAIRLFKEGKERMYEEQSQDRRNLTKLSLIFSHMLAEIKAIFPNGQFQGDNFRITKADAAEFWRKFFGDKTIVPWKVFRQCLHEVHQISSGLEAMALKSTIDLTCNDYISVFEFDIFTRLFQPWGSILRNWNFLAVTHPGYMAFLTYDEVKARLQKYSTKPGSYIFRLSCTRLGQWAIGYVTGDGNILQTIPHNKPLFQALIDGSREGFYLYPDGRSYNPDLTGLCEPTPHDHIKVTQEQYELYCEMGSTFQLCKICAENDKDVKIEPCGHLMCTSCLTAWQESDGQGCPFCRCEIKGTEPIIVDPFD

SMILES | fold induction at 0.3 µM [2, 10] | fold induction at 1 µM [2, 11] | fold induction at 1 µM [2, 12] | fold induction at 3 µM ([2]; anti-CD3 stimulation alone) | fold induction at 0.3 µM [3, 10] | fold induction at 1 µM [3, 13] | fold induction at 1 µM [3, 14] | fold induction at 3 µM ([3]; anti-CD3 stimulation alone) | IL-2 secretion CD3/CD28 0.3 μM [4] | IL-2 secretion CD3/CD28 1 μM [4] | IL-2 secretion CD3 1 μM [4] | IL-2 secretion CD3 3 μM [4] | IL-2 secretion CD3/CD28 0.3 μM [6] | IL-2 secretion CD3/CD28 1 μM [6] | IL-2 secretion CD3 1 μM [6] | IL-2 secretion CD3 3 μM [6] | IC50 [5, 16] | IC50 [7, 17] | IC50 [9, 17] | other results
Cc1cc(C(=O)Nc2cccc([C@]3(Cc4nncn4C)C[C@@H](C#N)C3)c2)nc(C2CC2)n1 [Compound 1, N-(3-((1r,3r)-3-cyano-1-((4-methyl-4H-1,2,4-triazol-3-yl)methyl)cyclobutyl)phenyl)-2-cyclopropyl-6-methylpyrimidine-4-carboxamide] | ≤ 15 | ≤ 15 | < 0.4 | < 0.4 | 1.24 to 1.39 | 1.24 to 1.39 | 1 to 1.15 | 1 to 1.15 | C (C indicates <10 fold) | B (B indicates 10-15 fold) | B (B indicates 0.34-0.66 fold) | B (B indicates 0.34-0.66 fold) | C (C indicates ≤10 fold) | B (B indicates 11-15 fold) | B (B indicates 0.34-0.66 fold) | B (B indicates 0.34-0.66 fold) |  |  |  | CD25 staining CD3/CD28 0.3 μM ([1]; 0.3 μM inhibitor): B (B indicates 1.25-1.39 fold); CD25 staining CD3/CD28 1 μM ([1]; 1 μM inhibitor): B (B indicates 1.25-1.39 fold); IC50 ([5]; 0.5 nM Cbl-b final concentration (High), read-out: Cbl-b activity IC50 (High)): 2 to 5 nM; IC50 ([5]; read-out: IC50 values in the Cbl-b inhibition assay of Biological Example 1): 2 to 5 nM; IC50 [7, 15]: 1 to 5 nM; CD25 staining CD3/CD28 0.3 μM ([8]; 0.3 μM inhibitor): B (B indicates 1.25-1.39 fold); CD25 staining CD3/CD28 1 μM ([8]; 1 μM inhibitor): B (B indicates 1.25-1.39 fold); IC50 [9, 15]: 1 to 5 nM
C[C@H]1CCCN(Cc2cc3c(c(C(F)(F)F)c2)CN(c2cccc([C@]4(Cc5nncn5C)C[C@@H](C#N)C4)c2)C3=O)C1 [Compound 19, (1R,3r)-3-((4-methyl-4H-1,2,4-triazol-3-yl)methyl)-3-(3-(6-(((S)-3-methylpiperidin-1-yl)methyl)-1-oxo-4-(trifluoromethyl)isoindolin-2-yl)phenyl)cyclobutane-1-carbonitrile] | > 20 | > 20 | > 0.85 | > 0.85 | > 1.39 | > 1.39 | > 1.15 | > 1.15 | A (A indicates >15 fold) | A (A indicates >15 fold) | A (A indicates >0.66 fold) | A (A indicates >0.66 fold) | A (A indicates >15 fold) | A (A indicates >15 fold) | A (A indicates >0.66 fold) | A (A indicates >0.66 fold) | < 1 nM | < 1 nM | < 1 nM | 
Cn1cnnc1C[C@]1(c2cccc(N3Cc4c(cc(CN[C@@H]5CCC(F)(F)C5)cc4C(F)(F)F)C3=O)c2)C[C@H](C#N)C1 [Compound 21, (1R,3r)-3-(3-(6-((((R)-3,3-difluorocyclopentyl)amino)methyl)-1-oxo-4-(trifluoromethyl)isoindolin-2-yl)phenyl)-3-((4-methyl-4H-1,2,4-triazol-3-yl)methyl)cyclobutane-1-carbonitrile] | > 20 | > 20 | > 0.85 | > 0.85 | > 1.39 | > 1.39 | > 1.15 | > 1.15 | A (A indicates >15 fold) | A (A indicates >15 fold) | A (A indicates >0.66 fold) | A (A indicates >0.66 fold) | A (A indicates >15 fold) | A (A indicates >15 fold) | A (A indicates >0.66 fold) | A (A indicates >0.66 fold) | < 1 nM | < 1 nM | < 1 nM | 
Cn1cnnc1C[C@]1(c2cccc(N3Cc4c(cc(CN[C@H]5CCC(F)(F)C5)cc4C(F)(F)F)C3=O)c2)C[C@H](C#N)C1 [Compound 20, (1R3r)-3-(3-(6-((((S)-3,3-difluorocyclopentyl)amino)methyl)-1-oxo-4-(trifluoromethyl)isoindolin-2-yl)phenyl)-3-((4-methyl-4H-1,2,4-triazol-3-yl)methyl)cyclobutane-1-carbonitrile] | > 20 | > 20 | > 0.85 | > 0.85 | > 1.39 | > 1.39 | > 1.15 | > 1.15 | A (A indicates >15 fold) | A (A indicates >15 fold) | A (A indicates >0.66 fold) | A (A indicates >0.66 fold) | A (A indicates >15 fold) | A (A indicates >15 fold) | A (A indicates >0.66 fold) | A (A indicates >0.66 fold) | < 1 nM | < 1 nM | < 1 nM | 
C[C@@H]1CN(Cc2cc(C(=O)Nc3cccc([C@]4(Cc5nncn5C)C[C@@H](C#N)C4)c3)nc(C3CC3)c2)CCO1 [Compound 56, N-(3-((1r,3R)-3-cyano-1-((4-methyl-4H-1,2,4-triazol-3-yl)methyl)cyclobutyl)phenyl)-6-cyclopropyl-4-(((R)-2-methylmorpholino)methyl)picolinamide] | 15 to 20 | > 20 | 0.4 to 0.85 | 0.4 to 0.85 | ≤ 1.24 | ≤ 1.24 | 1 to 1.15 | 1 to 1.15 | A (A indicates >15 fold) | A (A indicates >15 fold) | A (A indicates >0.66 fold) | A (A indicates >0.66 fold) | A (A indicates >15 fold) | A (A indicates >15 fold) | A (A indicates >0.66 fold) | A (A indicates >0.66 fold) | < 1 nM | < 1 nM | < 1 nM | 

Reference: patent US11530229B2, “Cyano cyclobutyl compounds for CBL-B inhibition and uses thereof” (Nurix Therapeutics, Inc., priority 2019, dated 2022)
